Read-outs that look alike come from different tables or passages of the source.
Key:
Type in all cases: cell-based, human
A2780DDP [1] = experiment: Inhibition of cell growth (cells counted on Coulter Counter after six days); conditions: for Ratio (degree of resistance or cross-resistance): A2780DDP vs A2780S EC50
Description: The experiment was conducted in triplicate in the manner described with respect to Table I. […]
(§1) Table VI includes EC50 data further exemplifying the invention. The data reported by Table VI was obtained by substantially the same procedure as that described with respect to Table III. In Table VI, “(C)” indicates continuous exposure, “(1 h)” and “(2 h)” indicate exposure for 1 hour and 2 hours; “HU” indicates hydroxyurea.

A2780S = experiment: as above
Description: The experiment was conducted in triplicate in the manner described with respect to Table I.
A2780 cells were well-plated (35 mm disnes) and 24 hours later the cells were treated with cisplatin for one hour, washed out and then treated with 6 concentrations of from 1 μM to 100 μM increased in equal increments of a nucleoside analog in saline. Cells were then washed and incubated for six days. The cells were counted on a Coulter Counter and the experiment was done in triplicate.
as §1

A2780DDP [2] = experiment: Dual labeled (14C/3H) DNA synthesis and degradation in response to cisplatin; incorporation of labelled nucleoside analogs; conditions: A2780DDP
Text: A dual labeled (^14C/^3H) experiment was designed to measure simultaneously DNA synthesis and degradation in response to cisplatin.

K562-VP16 = experiment: Inhibition of cell growth, Table VI
K562-araC = experiment: Inhibition of cell growth, Table VI; conditions: K562-araC
Description: as §1

K562S = experiment: Inhibition of cell growth, Table VI
Description: as §1

HCF-7 DDP = experiment: Inhibition of cell growth, Table VI; conditions: HCF-7 DDP
Description: as §1

HCT8S = experiment: Inhibition of cell growth (cells counted on Coulter Counter after six days); conditions: read-out: EC50
Description: as §1

HCT8DDP = experiment: as above; conditions: HCT8-DDP, read-out: EC50
Description: as §1

HCF7S = experiment: Inhibition of cell growth, Table VI
K562-DDP = experiment: Inhibition of cell growth, Table VI; conditions: for EC50: K562-DDP
[3] = continuous exposure, proliferation during 6 days, mean + SD, read-out: EC50 A2780DDP
[4] = continuous exposure, proliferation during 6 days, mean + SD, read-out: EC50 A2780S
[5] = 0 min after cisplatin (20 μM) treatment
[6] = 45 min after cisplatin (20 μM) treatment
[7] = 90 min after cisplatin (20 μM) treatment
[8] = 180 min after cisplatin (20 μM) treatment
[9] = A2780 DDP, (C) continuous exposure, read-out: EC50
[10] = A2780S, (C) continuous exposure, read-out: EC50
[11] = Homo sapiens, (C) continuous exposure

SMILES | EC50 (K562-VP16; (C) continuous exposure) | EC50 (K562-araC; (C) continuous exposure) | EC50 (K562S; (C) continuous exposure) | EC50 (K562-DDP; (C) continuous exposure) | Ratio (degree of resistance or cross-resistance) (A2780DDP [1]; continuous exposure) | EC50 (A2780DDP [1]; [3]) | EC50 (A2780S; [4]) | Incorporation of labelled nucleoside analog into macromolecules (A2780DDP [2]; [5]) | Incorporation of labelled nucleoside analog into macromolecules (A2780DDP [2]; [6]) | Incorporation of labelled nucleoside analog into macromolecules (A2780DDP [2]; [7]) | Incorporation of labelled nucleoside analog into macromolecules (A2780DDP [2]; [8]) | EC50 (A2780DDP [1]; [9]) | EC50 (A2780S; [10]) | EC50 (HCF-7 DDP; (C) continuous exposure) | EC50 (HCT8S; (C) continuous exposure) | EC50 (HCT8DDP; (C) continuous exposure) | EC50 (HCF7S; (C) continuous exposure) | also measured
Nc1ncnc2c1ncn2[C@@H]1O[C@H](CO)[C@@H](O)[C@@H]1O [araA] |  |  |  |  | +4.0 | 64.7 µM | 16.2 µM | 19.01 | 24.21 | 27.91 | 32.70 |  |  |  |  |  |  | 
Nc1ccn([C@@H]2O[C@H](CO)[C@@H](O)[C@@H]2O)c(=O)n1 [araC] |  |  |  |  | +45.0 | 4.5 µM | 0.1 µM |  |  |  |  |  |  |  |  |  |  | EC50 (A2780DDP [1]; A2780 DDP, (2h) exposure, read-out: EC50): 4.5 µM; EC50 (A2780S; A2780S, (2h) exposure, read-out: EC50): 0.1 µM; EC50 (K562-VP16; (2h) exposure): 8 µM; EC50 (K562-araC; (2h) exposure): 8 µM; EC50 (K562S; (2h) exposure): 0.3 µM; EC50 (HCF-7 DDP; (2h) exposure): 5 µM; EC50 (HCT8S; (2h) exposure): 29 µM; EC50 (HCT8DDP; (2h) exposure): 79 µM; EC50 (HCF7S; (2h) exposure): 2.5 µM; EC50 (K562-DDP; (2h) exposure): 0.3 µM
Nc1ncnc2c1ncn2[C@H]1CC[C@@H](CO)O1 [ddA, 2′3′-dideoxyadenosine] | 35 µM | 36 µM | 37.5 µM | 28 µM |  |  |  |  |  |  |  | 25 µM | 10 µM | 30 µM | 33 µM | 36 µM | 30 µM | 
Nc1ccn([C@H]2CC[C@@H](CO)O2)c(=O)n1 [ddC, dideoxycytidine] |  |  |  |  | +2.6 |  |  | 15.09 | 36.94 | 42.61 | 45.93 |  |  |  |  |  |  | EC50 (A2780DDP [1]; Homo sapiens, 144 h, continuous exposure, proliferation during 6 days, mean + SD, read-out: EC50 A2780DDP): 4 µM; EC50 (A2780DDP [1]; Homo sapiens, A2780 DDP, (C) continuous exposure, read-out: EC50): 4 µM; EC50 (A2780S; Homo sapiens, A2780S, 144 h, continuous exposure, proliferation during 6 days, mean + SD, read-out: EC50 A2780S): 1.5 µM; EC50 (A2780S; Homo sapiens, A2780S, (C) continuous exposure, read-out: EC50): 1.5 µM; EC50 (K562-VP16; [11]): 100 µM; EC50 (K562-araC; [11]): > 300 µM; EC50 (K562S; [11]): 25 µM; EC50 (HCF-7 DDP; [11]): > 100 µM; EC50 (HCT8S; [11]): 2 µM; EC50 (HCT8DDP; [11]): 23 µM; EC50 (HCF7S; [11]): 2.5 µM; EC50 (K562-DDP; [11]): 5 µM; factor more sensitive, cispt resistant vs sensitive K562 cells (K562-DDP; K562 human leukemia cells): 5

Second part, led by results:

EC50 (K562-VP16; (C) continuous exposure) | EC50 (K562-araC; (C) continuous exposure) | EC50 (K562S; (C) continuous exposure) | EC50 (K562-DDP; (C) continuous exposure) | SMILES | Ratio (degree of resistance or cross-resistance) (A2780DDP [1]; continuous exposure) | EC50 (A2780DDP [1]; [3]) | EC50 (A2780S; [4]) | Incorporation of labelled nucleoside analog into macromolecules (A2780DDP [2]; [5]) | Incorporation of labelled nucleoside analog into macromolecules (A2780DDP [2]; [6]) | Incorporation of labelled nucleoside analog into macromolecules (A2780DDP [2]; [7]) | Incorporation of labelled nucleoside analog into macromolecules (A2780DDP [2]; [8]) | EC50 (A2780DDP [1]; [9]) | EC50 (A2780S; [10]) | EC50 (HCF-7 DDP; (C) continuous exposure) | EC50 (HCT8S; (C) continuous exposure) | EC50 (HCT8DDP; (C) continuous exposure) | EC50 (HCF7S; (C) continuous exposure) | also measured
170 µM | 150 µM | 160 µM | 190 µM | Nc1nc2c(ncn2[C@H]2CC[C@@H](CO)O2)c(=O)[nH]1 [ddG, 2′,3′-dideoxyquanosene] |  |  |  |  |  |  |  | 110 µM | 60 µM | 180 µM | 35 µM | 45 µM | 210 µM | 
200 µM | > 400 µM | > 400 µM | > 400 µM | Cc1cn([C@H]2CC[C@@H](CO)O2)c(=O)[nH]c1=O [ddT, 2′,3′-dideoxythymidine] |  |  |  |  |  |  |  | > 750 µM | 110 µM | > 500 µM | > 150 µM | > 500 µM | > 500 µM | 
